# Measurements reported in publication PMC6920923, “Improving In Vivo Brain Delivery of Monoclonal Antibody Using Novel Cyclic Peptides” (Pharmaceutics, 2019).
# “Also recorded” adds a separate entry of the source.
# Legend:
# [1] = tested on: brains of C57BL/6 mice; assay: In vivo brain delivery of IRdye800CW-IgG mAb (NIRF quantification); conditions: n = 3
# Method: The activity of each peptide in enhancing BBB penetration was evaluated by delivering IRdye800CW donkey anti-goat IgG mAb in C57BL/6 mice; the amounts of mAb in the brain were determined using near infrared fluorescence (NIRF) imaging. Each group contains 3 mice per group (n = 3) with a mixture of male and female mice, selected randomly for each arm of the study. The injection solution was prepared by adding 600 µL PBS into 0.5 mg lyophilized IgG mAb; then, approximately 1.5 mg lyophilized peptide was added into the mixture yielding the injectable formulation. A 100 µL solution of a mixture containing IgG mAb (21.6 nmol/kg) along with 13 µmol/kg peptide was administered via tail vein. As a control, 100 µL of IgG mAb alone was administered via i.v. route. After the delivered molecules had been circulating for 15 min, the mice were sacrificed; then, a mixture of PBS with 0.5% Tween-20 was administered for cardiac perfusion to remove the blood and delivered molecules from the brain microvessels. The brain and other organs such as lung, heart, spleen, liver, and kidney were harvested and rinsed with PBS. The isolated organs were scanned with Odyssey® CLx for mAb quantification.
# The brain deposition of IgG mAb was also quantified by NIRF imaging in brain homogenates. The isolated brains were mechanically homogenized in 2.0 mL of PBS. To make the standard solutions, IRDye800CW IgG mAb stock solution (70 µg/mL) was prepared; it was then diluted with various amounts of PBS to make six different mAb concentrations. To generate a calibration curve, the brain homogenate (200 µL) was aliquoted out to a 96-well plate. A total of 10 µL of each concentration of IgG mAb was added to three different wells of blank brain homogenates. The standard spiked homogenates were at a range of 10–200 ng/mL IgG mAb in brain homogenate. The wells were scanned using the Odyssey® CLx scanner, and the signal intensities vs. concentrations of mAb per gram of brain were used to generate a calibration curve.
# ANOVA with Student–Newman–Keuls was used to compare the data for determining statistical significance for IgG mAb deposition in the brains. A p-value of less than 0.05 was used as a criterion for a significant difference in data comparison. Numeric results are presented as: mean ± SEM.
# A calibration curve was generated to determine the amount of IgG mAb in the brain by spiking blank brain homogenates with a concentration range from 10 to 200 ng/mL, and good linearity with R^2 ≥ 0.98 was achieved. […] The average amounts of IgG mAb in the brains of HAV6-treated and control animals were 3.4 ± 0.4 and 4.0 ± 0.5 pmol/g brain, respectively. In contrast, the average amounts of mAb in the brains of cyclic HAVN1- and HAVN2-treated mice were 8.6 ± 0.5 and 8.8 ± 0.6 pmol/g brain, respectively. The BBB modulatory activities of ADTC5, linear ADTHAV, and cyclic ADTHAV were also compared to the control (Figure 5). […] The average brain deposition of IgG mAb were 11.8 ± 0.5, 15.7 ± 0.8, and 13.3 ± 0.7 pmol/g brain for linear ADTHAV, cyclic ADTHAV, and ADTC5, respectively.
# [2] = biological target: T1, EC1 domain of E-cadherin (Homo sapiens, UniProt P12830); conditions: NMR studies; ref [26]; cited from earlier work
# T1 sequence (P12830 155-262 limits assumed): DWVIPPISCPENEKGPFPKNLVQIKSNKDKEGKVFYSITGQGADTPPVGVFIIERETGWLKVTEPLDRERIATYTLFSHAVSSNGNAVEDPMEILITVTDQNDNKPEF
# Description: Cadherin peptides interrupt the cadherin–cadherin interactions by binding to the extracellular domains of cadherins allowing delivered molecules to pass through the […] of the BBB. […] Using the X-ray structure of C-cadherin as a model, it is seen that the cadherin molecules can form cis- and trans-interactions with each other in a homotypic fashion. The cis-cadherin interactions were formed via binding of the EC1 domain from one ca ...
# [3] = tested on: brain (C57BL/6 mice); conditions: recent studies, ref not given; cited from earlier work
# Description: Treating brain diseases is a challenge as it is difficult to deliver drugs through the BBB into the brain. As many approaches to solve this problem have failed clinically, it is important to investigate new methods to improve brain delivery of molecules for diagnosing and treating brain diseases. This study was focused on designing, synthesizing, and evaluating new cyclic peptides for modulating the BBB to increase paracellular protein delivery into the brain.
# [4] = tested on: brain (C57BL/6 mice); conditions: peptide 13 µmol/kg, albumin 21.6 nmol/kg; ref not given; cited from earlier work
# Description: Treating brain diseases is a challenge as it is difficult to deliver drugs through the BBB into the brain. As many approaches to solve this problem have failed clinically, it is important to investigate new methods to improve brain delivery of molecules for diagnosing and treating brain diseases. This study was focused on designing, synthesizing, and evaluating new cyclic peptides for modulating the BBB to increase paracellular protein delivery into the brain. […] It is proposed that the rigidity imposed on the peptide backbone of the cyclic peptide reduced the ensemble ...
# [5] = tested on: BBB; conditions: ref [22], cited from earlier work
# Description: Treating brain diseases is a challenge as it is difficult to deliver drugs through the BBB into the brain. As many approaches to solve this problem have failed clinically, it is important to investigate new methods to improve brain delivery of molecules for diagnosing and treating brain diseases. This study was focused on designing, synthesizing, and evaluating new cyclic peptides for modulating the BBB to increase paracellular protein delivery into the brain. […] This is because it is dangerous to keep the BBB open for a long period of time, allowing unwanted molecules to enter the brain. However, it is necessary to maintain the opening for an adequate amount of time to allow the delivered molecule to enter the brain with the necessary dose. For example, HAV6 has an opening window of less than 1 h to allow a small molecule such as IRdye-R800 and gadopentetic acid (Gd-DTPA) to enter the brain, while ADTC5 has a durati ...
# [6] = tested on: BBB; conditions: cited from earlier work
# Method: The duration of time of the BBB opening is an important factor to consider for using cadherin peptides to deliver molecules to the brain. This is because it is dangerous to keep the BBB open for a long period of time, allowing unwanted molecules to enter the brain. However, it is necessary to maintain the opening for an adequate amount of time to allow the delivered molecule to enter the brain with the necessary dose. For example, HAV6 has an opening window of less than 1 h to allow a small molecule such as IRdye-R800 and gadopentetic acid (Gd-DTPA) to enter the brain, while ADTC5 has a durati ...
# [7] = tested on: brain; conditions: cited from earlier work
# Method: (§1) Several attempts have been made to overcome this challenge using various invasive and non-invasive methods. Intracerebral ventricular (ICV) delivery is an invasive injection technique in which drug substances are administered directly into the cerebrospinal fluid in cerebral ventricles. Alternatively, many non-invasive methods have been investigated in vivo with various levels of success using receptor-mediated drug delivery systems, liposomes, microbubble-enhanced diagnostic ultrasound (MEUS), and nanoparticles. The most successful non-invasive method for delivering drugs to ...
# [8] = tested on: medulloblastoma brain tumor; conditions: ref [24], cited from earlier work
# Method: as §1
# [9] = tested on: MDCK cell monolayers / in vivo BBB; conditions: vs ADTC1 or ADTC5; ref [20]; cited from earlier work
# Description: (§2) This study was also aimed at developing cyclic ADTHAV peptide by combining important residues from the ADT peptide (i.e., ADTC5) and HAV peptide (i.e., HAV6). Because ADTC5 and HAV6 bind at different sites on the EC1 domain, combining the two active sequences could provide synergistic activity form both parent peptides on cyclic ADTHAV. In this case, cyclic ADTHAV contains the Thr-Pro-Pro-Val sequence from ADTC5 and Ser-His-Ala-Val sequence from HAV6. The hypothesis is that the combined sequence enhances BBB modulatory activity better than the parent ADTC5 and HAV6. The selection of the Thr-Pr ...
# [10] = tested on: primary brain endothelial cell monolayers; conditions: ref [33] Bocsik et al.; cited from earlier work
# Description: as §2
# [11] = tested on: MDCK cell monolayers; conditions: ref [19], cited from earlier work
# Method: Previously, cyclic cHAVc1 (cyclo(1,8)Ac-CSHAVASC-NH2) and cHAVc3 (cyclo(1,6)Ac-CSHAVC-NH2) were prepared and compared to a linear HAV4 (Ac-SHAVAS-NH2) in modulating the intercellular junctions in vitro and in vivo [19]. […] An alanine scanning study was carried out to evaluate the role of each amino acid in HAV6 peptide, and the biological activity of each alanine mutant peptide was evaluated in lowering the TEER values of MDCK cell monolayers. Mutation of the Ser1 to Ala1 residue reduced the junction modulatory activity of the HAV6 mutant; ...
# [12] = tested on: brain; conditions: MRI, mice; ref [19]; cited from earlier work
# Method: Previously, cyclic cHAVc1 (cyclo(1,8)Ac-CSHAVASC-NH2) and cHAVc3 (cyclo(1,6)Ac-CSHAVC-NH2) were prepared and compared to a linear HAV4 (Ac-SHAVAS-NH2) in modulating the intercellular junctions in vitro and in vivo [19].
# [13] = tested on: BBB; conditions: disulfide cyclic peptides vs parent linear peptides; ref [19],[20]; cited from earlier work
# Description: The goal of this study was to design and synthesize novel cyclic peptides derived from HAV6 and ADTC5 peptides to improve their BBB modulatory activity and selectivity by forming a peptide bond from the N- to C-termini (Table 1, Figure 1). The hypothesis is that the formation of N-to-C-termini cyclic peptides increases the backbone rigidity of the peptide to improve binding affinity and selectivity for the EC1 domain of cadherin as well as improving plasma stability of the cyclic peptide compared to its parent linear peptide. Previously, cHAVc3 and ADTC5 cyclic peptides were formed using a dis ...
substance,measurement,setting,value
"Ac-SHAVSS-NH2 [HAV6, parent linear cadherin peptide]",amount of IgG mAb in the brain (brain deposition),"[1]; IgG mAb 21.6 nmol/kg with or without 13 µmol/kg peptide, i.v. tail vein, 15 min circulation, PBS/0.5% Tween-20 perfusion, NIRF (Odyssey CLx) of brain homogenate, mean ± SEM",3.4 ± 0.4 pmol/g brain
same,"brain delivery of IgG mAb compared to control (IgG mAb alone), in words","[1]; IgG mAb 21.6 nmol/kg, peptide 13 µmol/kg i.v., 15 min, ANOVA Student–Newman–Keuls",did not enhance brain delivery of IgG mAb compared to the control
same,"binding site on EC1 domain, in words",[2],bind to the EC1 domain of E-cadherin at the interface of cis-cadherin interactions
same,"brain delivery of 15 kDa lysozyme vs control, in words",[3],significantly enhanced the brain delivery of 15 kDa lysozyme compared to the control
same,"brain delivery of albumin vs control, in words",[4],did not significantly enhance brain delivery of albumin; also recorded: no significant enhancement of albumin brain deposition
same,"BBB penetration of galbumin with 10-min delay after peptide, in words",[5]; 10-min delay between peptide and galbumin,does not allow the galbumin to cross the BBB
same,"brain deposition of galbumin, in words","[5]; galbumin 600 nmol/kg, living mice, MRI",significant brain deposition of galbumin
same,"BBB penetration of 65 kDa galbumin, delivered together with peptide, in words",[5]; high dose galbumin,can increase the BBB penetration of galbumin
same,BBB window of opening for galbumin,"[6]; 65 kDa galbumin, ref [22] for HAV6 galbumin data, none printed for ADTC5",< 10 min
same,opening window of BBB for small molecule (IRdye-R800 and Gd-DTPA),"[6]; IRdye-R800 and Gd-DTPA, ref [20],[21]",less than 1 h
same,"brain delivery of various molecules, in words","[7]; HAV6 and ADTC5 collectively, 14C-mannitol, PEG, daunomycin, R800, Gd-DTPA, cLABL, cIBR7, galbumin etc., ref [18],[19],[20],[21],[22],[23]",increase the brain delivery of various molecules
same,"oral and brain deliveries of eflornithine, in words","[7]; rats, ref [25]",simultaneously increased
same,"survival and tumor growth, in words",[8]; adenanthin + HAV6 vs adenanthin alone or placebo,increased survival and suppressed tumor growth
same,"delivery of adenanthin into brain, in words",[8]; mice with medulloblastoma brain tumor,"significantly improve the delivery of an anticancer drug, adenanthin, into the brains of mice"
"cyclo(1,6)Ac-CDTPPC-NH2 (disulfide) [ADTC6, earlier cyclic ADT peptide]","activity of ADT peptide, in words",[9],lowered the activity of ADTC6 compared to ADTC5
"Ac-ADTPPV-NH2 [ADT6, linear ADT peptide of Bocsik et al]","disruption of intercellular junctions (TEER), in words",[10],reversibly disrupts the intercellular junctions of primary brain endothelial cell monolayers
"cyclo(1,6)Ac-CSHAVC-NH2 (disulfide) [cHAVc3, earlier disulfide cyclic HAV peptide]","binding site on EC1 domain, in words",[2],bind to the EC1 domain of E-cadherin at the interface of cis-cadherin interactions
same,"lowering of TEER values of MDCK cell monolayers vs HAV4, in words",[11]; TEER,better than a linear HAV4
same,"junction modulatory activity in MDCK cell monolayers, in words",[11]; compared to HAV4 (and cHAVc1),more active compared to HAV4 and cHAVc1
same,"in vivo brain delivery of Gd-DTPA vs HAV4, in words",[12],better than a linear HAV4
same,"BBB modulatory activity and plasma stability vs parent linear peptides, in words",[13],enhanced BBB modulatory activity and plasma stability compared to their parent linear peptides
